# Test results as given in the supplement of paper PMC11061612.
# Experiments:
# Assay in all cases: combination Emax (second highest fraction inhibited in the dose matrix, 72 h); higher = more inhibition; extreme values may be limits of the assay
# [1] = system: CAMA-1 (Breast Carcinoma)
# In short: (§1)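 Cell lines grown in DMEM/F12 or RPMI with 10% FBS were plated in 1536-well plates and held 24 hours at 37°C, 5% CO2 before 72 hours of exposure to two-drug dose matrices, with DMSO typically at 0.2%. CellTiter-Glo 2.0 luminescence gave viability, which was converted to inhibition. Vehicle wells were set to 0 and blank wells to 1. Combination Emax is the second-highest inhibition in the matrix, and Bliss excess is the observed combination effect minus the expected EA + EB − EA·EB, where EA and EB are the single-agent effects.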
# [2] = system: HL-60 (Acute Myeloid Leukemia)
# In short: as §1
# [3] = system: BFTC-905 (Bladder Carcinoma)
# In short: as §1
# [4] = system: GR-ST (B-Lymphoblastic Leukemia)
# In short: as §1
# NCI-H2818 (Mesothelioma) = system: NCI-H2818 (Mesothelioma)
# In short: as §1
# [5] = system: MOLT-16 (T-Lymphoblastic Leukemia)
# In short: as §1
# [6] = system: TOV-112D (Ovarian Carcinoma)
# In short: as §1
# [7] = system: MFM-223 (Breast Carcinoma)
# In short: as §1
# U251 (Low Grade Glioma) = system: U251 (Low Grade Glioma)
# In short: as §1
# [8] = system: SW1417 (Colorectal Carcinoma)
# In short: as §1
# [9] = system: SW837 (Colorectal Carcinoma)
# In short: as §1
# [10] = system: P12-ICHIKAWA (T-Lymphoblastic Leukemia)
# In short: as §1
# [11] = system: PANC-08-13 (Pancreatic Carcinoma)
# In short: as §1
# [12] = system: KCL-22 (Chronic Myelogenous Leukemia)
# In short: as §1
# [13] = system: K-562 (Chronic Myelogenous Leukemia)
# In short: as §1
# ES8 (Ewing's Sarcoma) = system: ES8 (Ewing's Sarcoma)
# In short: as §1
# CHP-212 (Neuroblastoma) = system: CHP-212 (Neuroblastoma)
# In short: as §1
# [14] = system: MKN28 (Gastric Carcinoma)
# In short: as §1
# [15] = system: NCI-H1792 (Lung Adenocarcinoma)
# In short: as §1
# [16] = system: HDQ-P1 (Breast Carcinoma)
# In short: as §1
SMILES,combination Emax [1],combination Emax [2],combination Emax [3],combination Emax [4],combination Emax (NCI-H2818 (Mesothelioma)),combination Emax [5],combination Emax [6],combination Emax [7],combination Emax (U251 (Low Grade Glioma)),combination Emax [8],combination Emax [9],combination Emax [10],combination Emax [11],combination Emax [12],combination Emax [13],combination Emax (ES8 (Ewing's Sarcoma)),combination Emax (CHP-212 (Neuroblastoma)),combination Emax [14],combination Emax [15],combination Emax [16]
"CC1(C)CCC(CN2CCN(c3ccc(C(=O)NS(=O)(=O)c4ccc(NCC5CCOCC5)c([N+](=O)[O-])c4)c(Oc4cnc5[nH]ccc5c4)c3)CC2)=C(c2ccc(Cl)cc2)C1 [Venetoclax] + C1CN(CCC1(C(=O)N[C@@H](CCO)C2=CC=C(C=C2)Cl)N)C3=NC=NC4=C3C=CN4 [Capivasertib] (first compound max 1 µM, 7x7, partner max 3 µM)",0.63,0.781,0.193,0.696,0.175,1,0.0882,0.639,0.303,0.193,0.127,0.49,0.189,0.183,0.369,0.532,0.152,0.255,0.223,0.205
"Cc1c2c(nn1C)CSCc1cc(n(C)n1)CSc1cc(c3ccccc3c1)OCCCc1c(C(=O)O)n(C)c3c-2c(Cl)ccc13 [AZD5991] + CCN(CCO)CCCOc1ccc2c(Nc3cc(CC(=O)Nc4cccc(F)c4)[nH]n3)ncnc2c1 [AZD2811] (first compound max 1 µM, 7x7, partner max 1 µM)",0.914,1,0.794,0.336,0.287,1,0.868,0.574,0.423,0.23,0.231,1,0.281,0.921,0.43,1,0.86,0.329,0.314,0.159
